These results are taken from patent US9758503B1, “Coumarin-gossypol derivatives with antitumor activities and a method of preparing the same” (SHAANXI UNIVERSITY OF SCIENCE AND TECHNOLOGY, priority 2017, dated 2017).

Test [1] relates to human hepatoma cells (HepG2). As to the kind of experiment: MTT tumor cell proliferation inhibition test, HepG2. Format: cell-based. The conditions noted are these: read-out: Half Inhibitory Concentration IC50 HepG2. Here is the method:
(§1) The compounds of the present invention were subjected to tumor cell proliferation inhibition test, and conventional MTT method was used.
(§2) Cell lines: human hepatoma cells (HepG2), human lung cancer cells (A-549), human gastric cancer cells (SGC-7901). The culture medium was DMEM+15% NBS+double antibody.
(§3) Sample solution preparation: after dissolving with DMSO (Merck), PBS (−) was added to obtain 100 μmol/L solution or homogeneous suspension. The solution was diluted with PBS (−) in DMSO to a final concentration of 0.1, 1, 10, 20, 40, 60, 80, 100 μmol/L.
(§4) Gossypol was used as control solution, prepared under the same condition.
(§5) Cell culture: adherent growth Tumor cells were cultured in 1640 medium containing 10% inactivated neonatal bovine serum and penicillin, streptomycin (1 million U/L), placed in carbon dioxide incubator at 37° C., 5% CO2, and saturated humidity. Cells were treated serially passaged 2-3 times. The first culture was washed with PBS 2 times, and digested with trypsin. Fresh culture medium was added evenly, cells were adjusted to a appropriate concentration and transferred into a new culture flask. Cell in an exponential phase were chosen for the tests.
(§6) MTT Assay for Cell Viability and IC50 Determination:
(§7) Experimental Principle: Living cells mitochondria in the dehydrogenase can reduce yellow MTT to water-insoluble blue-violet product MT (MTT formazan), deposited in the cells. The amount of production is proportional to the number of living cells. […] DMSO can dissolve blue violet crystals, and the color depth is proportional to the amount contained, so the absorbance measured by the microplate reader can reflect the cell viability.
(§8) Methods: The exponential phase cells were digested and counted and seeded in 96-well plates at a density of 2×10^4/mL at 100 μl per well. After 24 hours of incubation, the cells to be tested were treated with 0.1, 1, 10, 20, 40, 60, 80, 100 μmol/L of the compounds. Each experimental group had 5 wells in each concentration, and the culture medium containing 0.4% DMSO was used as control. After 48 hours, the supernatant was discarded, and 100 μl of MTT ((2-(4,5-dimethyl-2-thiazolyl)-3,5-diphenyl-2H-[…]) (1 mg/mL) was added to each well. After another 4 hours, the supernatant was discarded, and 100 μl of DMSO was added to each well. After mixing, the absorbance was measured at 570 nm using a microplate reader. An IC50 calculation software was used to determine the half inhibitory concentration (IC50).

Test [2] relates to human lung cancer cells (A-549). The test is described as follows: MTT tumor cell proliferation inhibition test, A-549. The class given is cell-based. The conditions noted are these: read-out: Half Inhibitory Concentration IC50 A549. The method, then:
as §1, §2, §3, §4, §5, §6, §7, §8

The test system of test [3] is human gastric cancer cells (SGC-7901). The test is described as follows: MTT tumor cell proliferation inhibition test, SGC-7901. Conditions: read-out: Half Inhibitory Concentration IC50 SGC-7901. Format: cell-based. Here is the method:
as §1, §2, §3, §4, §5, §6, §7, §8

For test [4], the system named is three cell lines tested (HepG2, A-549, SGC-7901). As to the kind of experiment: MTT tumor cell proliferation inhibition test, summary over the three cell lines. Format: cell-based, human. The method, then:
as §1, §2, §3, §4
Cell culture: adherent growth Tumor cells were cultured in 1640 medium containing 10% inactivated neonatal bovine serum and penicillin, streptomycin (1 million U/L), placed in carbon dioxide incubator at 37° C., 5% CO2, and saturated humidity. Cells were treated serially passaged 2-3 times. The first culture was washed with PBS 2 times, and digested with trypsin. Fresh culture medium was added evenly, cells were adjusted to a appropriate concentration and transferred into a new culture flask. […]
Experimental Principle: Living cells mitochondria in the dehydrogenase can reduce yellow MTT to water-insoluble blue-violet product MT (MTT formazan), deposited in the cells. […] DMSO can dissolve blue violet crystals, and the color depth is proportional to the amount contained, so the absorbance measured by the microplate reader can reflect the cell viability.
Methods: The exponential phase cells were digested and counted and seeded in 96-well plates at a density of 2×10^4/mL at 100 μl per well. […] After 48 hours, the supernatant was discarded, and 100 μl of MTT ((2-(4,5-dimethyl-2-thiazolyl)-3,5-diphenyl-2H-[…]) (1 mg/mL) was added to each well. After another 4 hours, the supernatant was discarded, and 100 μl of DMSO was added to each well. After mixing, the absorbance was measured at 570 nm using a microplate reader. An IC50 calculation software was used to determine the half inhibitory concentration (IC50).

[5] abbreviates: HepG2 cells, MTT, 48 hours treatment.
The mark [6] stands for this setting: A549 cells, MTT, 48 hours treatment.
Setting [7] is: SGC-7901 cells, MTT, 48 hours treatment.

Each structure is given as a SMILES string. Like-named read-outs stand apart in the source and are kept apart here. Bounds are passed on as bounds.

As for `Cc1cc2c(c(O)c1-c1c(C)cc3c(C(C)C)c(O)c(O)c(C=O)c3c1O)/C(=C/c1c(O)c3ccccc3oc1=O)C(=O)C(O)=C2C(C)C` [Compound A-1, (Z)-1,1′,6,6′,7-pentahydroxy-8′-((4-hydroxy-2-oxo-2H-chromen-3-yl)methylene)-5,5′-diisopropyl-3,3′-dimethyl-7′-oxo-7′,8′-dihydro-[2,2′-binaphthalene]-8-carbaldehyde], the IC50 in test [1] (setting [5]) is 10.7 ± 0.65 µM; in test [2] (setting [6]), 17.1 ± 0.72 µM; in test [3] (setting [7]), 21.3 ± 1.34 µM. Besides, in test [4], the “antitumor activities (verbal summary)” value was “best antitumor activities”.
`Cc1cc2c(c(O)c1-c1c(C)cc3c(C(C)C)c(O)c(O)c(C=O)c3c1O)/C(=C/c1c(O)c3cc(Cl)ccc3oc1=O)C(=O)C(O)=C2C(C)C` [Compound A-2, (Z)-8′-((6-chloro-4-hydroxy-2-oxo-2H-chromen-3-yl)methylene)-1,1′,6,6′,7-pentahydroxy-5,5′-diisopropyl-3,3′-dimethyl-7′-oxo-7′,8′-dihydro-[2,2′-binaphthalene]-8-carbaldehyde]: the IC50 in test [1] (setting [5]), in test [2] (setting [6]) and in test [3] (setting [7]) was above 100 µM in each case.
For `Cc1cc2c(c(O)c1-c1c(C)cc3c(C(C)C)c(O)c(O)c(C=O)c3c1O)/C(=C/c1c(O)c3ccc(O)cc3oc1=O)C(=O)C(O)=C2C(C)C` [Compound A-3, (Z)-8′-((4,7-dihydroxy-2-oxo-2H-chromen-3-yl)methylene)-1,1′,6,6′,7-pentahydroxy-5,5′-diisopropyl-3,3′-dimethyl-7′-oxo-7′,8′-dihydro-[2,2′-binaphthalene]-8-carbaldehyde], the IC50 in test [1] (setting [5]) came to 17.8 ± 0.95 µM; in test [2] (setting [6]), 26.7 ± 1.12 µM; in test [3] (setting [7]), 30.7 ± 1.31 µM. Further, in test [4], the “antitumor activities (verbal summary)” value is reported as “good antitumor activities”.
With `COc1cccc2c(O)c(/C=C3\C(=O)C(O)=C(C(C)C)c4cc(C)c(-c5c(C)cc6c(C(C)C)c(O)c(O)c(C=O)c6c5O)c(O)c43)c(=O)oc12` [Compound A-4, (Z)-1,1′,6,6′,7-pentahydroxy-8′-((4-hydroxy-8-methoxy-2-oxo-2H-chromen-3-yl)methylene)-5,5′-diisopropyl-3,3′-dimethyl-7′-oxo-7′,8′-dihydro-[2,2′-binaphthalene]-8-carbaldehyde], the IC50 in test [1] (setting [5]) was 26.5 ± 1.02 µM; in test [2] (setting [6]) it was 43.4 ± 1.21 µM; in test [3] (setting [7]), 31.2 ± 1.33 µM.
The matching figures for `Cc1cc2c(c(O)c1-c1c(C)cc3c(C(C)C)c(O)c(O)c(C=O)c3c1O)/C(=C/c1c(O)c3c(O)cc(O)cc3oc1=O)C(=O)C(O)=C2C(C)C` [Compound A-5, (Z)-1,1′,6,6′,7-pentahydroxy-5,5′-diisopropyl-3,3′-dimethyl-7′-oxo-8′-((4,5,7-trihydroxy-2-oxo-2H-chromen-3-yl)methylene)-7′,8′-dihydro-[2,2′-binaphthalene]-8-carbaldehyde]: above 100 µM, above 100 µM and 88.8 ± 3.02 µM.
As for `Cc1cc(C)c2c(O)c(/C=C3\C(=O)C(O)=C(C(C)C)c4cc(C)c(-c5c(C)cc6c(C(C)C)c(O)c(O)c(C=O)c6c5O)c(O)c43)c(=O)oc2c1` [Compound A-6, (Z)-1,1′,6,6′,7-pentahydroxy-8′-((4-hydroxy-5,7-dimethyl-2-oxo-2H-chromen-3-yl)methylene)-5,5′-diisopropyl-3,3′-dimethyl-7′-oxo-7′,8′-dihydro-[2,2′-binaphthalene]-8-carbaldehyde], the figures for the IC50 in test [1] (setting [5]), in test [2] (setting [6]) and in test [3] (setting [7]) were 42.1 ± 1.04 µM, above 100 µM and 32.6 ± 1.81 µM, respectively.
As for `Cc1cc2c(c(O)c1-c1c(C)cc3c(c1O)/C(=C/c1c(O)c4ccccc4oc1=O)C(=O)C(O)=C3C(C)C)/C(=C/c1c(O)c3ccccc3oc1=O)C(=O)C(O)=C2C(C)C` [Compound B-1, (8Z,8′Z)-1,1′,6,6′-tetrahydroxy-8,8′-bis((4-hydroxy-2-oxo-2H-chromen-3-yl)methylene)-5,5′-diisopropyl-3,3′-dimethyl-[2,2′-binaphthalene]-7,7′(8H,8′H)-dione], the IC50 in test [1] (setting [5]) is 15.2 ± 0.34 µM; in test [2] (setting [6]), 22.3 ± 0.9 µM; in test [3] (setting [7]), 26.9 ± 1.35 µM. Also, the “antitumor activities (verbal summary)” value in test [4] is “good antitumor activities”.
On to `Cc1cc2c(c(O)c1-c1c(C)cc3c(c1O)/C(=C/c1c(O)c4cc(Cl)ccc4oc1=O)C(=O)C(O)=C3C(C)C)/C(=C/c1c(O)c3cc(Cl)ccc3oc1=O)C(=O)C(O)=C2C(C)C` [Compound B-2, (8Z,8′Z)-8,8′-bis((6-chloro-4-hydroxy-2-oxo-2H-chromen-3-yl)methylene)-1,1′,6,6′-tetrahydroxy-5,5′-diisopropyl-3,3′-dimethyl-[2,2′-binaphthalene]-7,7′(8H,8′H)-dione], for which the IC50 is above 100 µM in test [1] (setting [5]), 68.5 ± 2.44 µM in test [2] (setting [6]) and above 100 µM in test [3] (setting [7]).
Take `Cc1cc2c(c(O)c1-c1c(C)cc3c(c1O)/C(=C/c1c(O)c4ccc(O)cc4oc1=O)C(=O)C(O)=C3C(C)C)/C(=C/c1c(O)c3ccc(O)cc3oc1=O)C(=O)C(O)=C2C(C)C` [Compound B-3, (8Z,8′Z)-8,8′-bis((4,7-dihydroxy-2-oxo-2H-chromen-3-yl)methylene)-1,1′,6,6′-tetrahydroxy-5,5′-diisopropyl-3,3′-dimethyl-[2,2′-binaphthalene]-7,7′(8H,8′H)-dione]: the IC50 is 16.7 ± 0.45 µM in test [1] (setting [5]), 28.6 ± 0.64 µM in test [2] (setting [6]) and 33.2 ± 1.01 µM in test [3] (setting [7]).
For the compound `COc1cccc2c(O)c(/C=C3\C(=O)C(O)=C(C(C)C)c4cc(C)c(-c5c(C)cc6c(c5O)/C(=C/c5c(O)c7cccc(OC)c7oc5=O)C(=O)C(O)=C6C(C)C)c(O)c43)c(=O)oc12` [Compound B-4, (8Z,8′Z)-1,1′,6,6′-tetrahydroxy-8,8′-bis((4-hydroxy-8-methoxy-2-oxo-2H-chromen-3-yl)methylene)-5,5′-diisopropyl-3,3′-dimethyl-[2,2′-binaphthalene]-7,7′(8H,8′H)-dione], the IC50 in test [1] (setting [5]) was found to be 22.4 ± 0.58 µM; in test [2] (setting [6]), 38.4 ± 0.79 µM; in test [3] (setting [7]), 40 ± 1.43 µM.
The matching figures for `Cc1cc2c(c(O)c1-c1c(C)cc3c(c1O)/C(=C/c1c(O)c4c(O)cc(O)cc4oc1=O)C(=O)C(O)=C3C(C)C)/C(=C/c1c(O)c3c(O)cc(O)cc3oc1=O)C(=O)C(O)=C2C(C)C` [Compound B-5, (8Z,8′Z)-1,1′,6,6′-tetrahydroxy-5,5′-diisopropyl-3,3′-dimethyl-8,8′-bis((4,5,7-trihydroxy-2-oxo-2H-chromen-3-yl)methylene)-[2,2′-binaphthalene]-7,7′(8H,8′H)-dione]: above 100 µM, above 100 µM and 54.3 ± 2.85 µM.
`Cc1cc(C)c2c(O)c(/C=C3\C(=O)C(O)=C(C(C)C)c4cc(C)c(-c5c(C)cc6c(c5O)/C(=C/c5c(O)c7c(C)cc(C)cc7oc5=O)C(=O)C(O)=C6C(C)C)c(O)c43)c(=O)oc2c1` [Compound B-6, (8Z,8′Z)-1,1′,6,6′-tetrahydroxy-8,8′-bis((4-hydroxy-5,7-dimethyl-2-oxo-2H-chromen-3-yl)methylene)-5,5′-diisopropyl-3,3′-dimethyl-[2,2′-binaphthalene]-7,7′(8H,8′H)-dione]: the IC50 in test [1] (setting [5]) was 58.6 ± 3.23 µM; in test [2] (setting [6]), above 100 µM; in test [3] (setting [7]) it was above 100 µM.
In the case of `Cc1cc2c(C(C)C)c(O)c(O)c(C=O)c2c(O)c1-c1c(C)cc2c(C(C)C)c(O)c(O)c(C=O)c2c1O` [Gossypol], the IC50 came to 18.4 ± 0.71 µM in test [1] (HepG2, 48 h); 26.3 ± 1.89 µM in test [2] (A549, 48 h); 43.6 ± 2.03 µM in test [3] (SGC-7901, 48 h).
